# Reference: patent US12589143B2, “Human anti-PD-L1 peptide vaccines and methods of their use” (priority 2019, dated 2026)
# Where no end group is shown, it is not given here.
# Legend:
# [1] = system: MVF-PD-L1 peptide immunogen; assay: Immunogenicity in Balb/c mice, experiment 2 (CT26/HER-2): ELISA of sera vs each MVF-PD-L1 peptide immunogen; type: in vivo; conditions: Balb/c mice
# Procedure: Immunogenicity of MVF-PD-L1 B-cell epitopes. New Zealand White rabbits were immunized with 1 mg of each MVF-peptide immunogens dissolved in dd H2O emulsified (1:1) in Montanide ISA 720 vehicle (Seppic) with 333 μg of N-acetylglucosamine-3yl-acetyl-1-alanyl-d-isoglutamine (nor-MDP). Rabbits were boosted with the same doses at 3-week's intervals. Blood was collected via the central auricular artery in rabbits. Blood was collected weekly (1Y+3, 2Y+1, 2Y+2,2Y+3, 3Y+1, 3Y+2 and sera tested for antibody titers by ELISA using the immunogens MVF-PD-L1 peptides. Sera (terminal) from rabbit (3Y+3) immunized with MVF-PD-1 peptide immunogens were tested individually versus the immunogen by ELISA. 200 ng/well peptide were used in duplicates to coat the ELISA plates. Titers are defined as the highest dilution of sera with an absorbance value of 0.2 after subtracting the blank. […]
# In order to verify the efficacy of the PD-L1 epitope vaccines in vivo in the CT26/HER-2 carcinoma cell line, Balb/c mice (10 mice/group) were immunized with 100 μg each of MVF-PD-L1 (36-53), MVF-PD-L1 (50-67), MVF-PD-L1 (95-112) and MVF-PD-L1 (130-147) emulsified with nor-MDP and Montanide 720 (1:1 ratio) SCHEME 2A (FIG. 15A). As detailed in SCHEME 2A-D (FIGS. 15A, 15B, 15C, and 15D), mice were immunized 3 times at 3 weeks intervals. […] All PD-L1 epitopes elicited high titers of PD-L1 anti-peptide antibodies by ELISA. […] We also investigated the combination of PD-1(92-110) with PD-L1-95.
# For each peptide, vaccine antibodies were raised in New Zealand white rabbits, purchased from Charles River Laboratories (Wilmington, MA, USA). Rabbits were immunized with 1 mg of MVF chimeric peptide emulsified in Montanide ISA 720 (Seppic, Paris, France) and boosted 3 times at three week intervals. For mouse experiments, mice, 6-8 weeks old, were immunized with 0.1 mg of peptide emulsified in ISA720 (1:1 ratio). Mice were boosted with the respective doses at 3-week intervals. Blood was then collected and sera were tested for antibody titers. Sera were collected weekly and peptide vaccine antibodies were purified by affinity chromatography using a protein A/G column and the concentration was measured using Spectrophometer. All experiments were performed in accordance with the U.S. Public Health Service Policy on Humane Care and Use of Laboratory animals and approved by the Ohio State University Institutional Animals Care and Use Committee, detailed in the accepted protocol.
# (§1) 6-8 weeks old BALB/c mice (Charles River, Wilmington, MA) were used as standard animal models. Mouse CT26 colon carcinoma cell line was purchased from American Type Culture Collection Cells and were regularly cultured in RPMI1640 medium containing 10% FBS. CT26/HER2 cells were kindly provided by M. Penichet. Vaccines were dissolved in sterile water and emulsified in Montanide ISA 720 (1:1). Female Balb/c mice (Charles River Laboratories) at the age of 6-8 weeks were immunized three times at 3-week intervals with 100 μg of each peptide vaccine, and 2 weeks after the third immunization, the mice were challenged with CT26 and/or CT26/HER-2 tumor cells, which were implanted subcutaneously (s.c) on the right flank (1×10^5 per mouse). 200 μg of rat α-mouse PD-L1 mAb 10F.9G2 (Bio X Cell, West Lebanon, NH) were administered intraperitoneally (i.p.), twice weekly following tumor inoculation in the control group. Mice were monitored and scored for the formation of palpable tumors on a daily basis and sacrificed if tumors became necrotic or exceeded the predetermined size of 2,000 mm^3. Tumor volumes were measured in cubic millimeters with calipers and calculated with the following formula: A×B^2×0.5, where A is the largest diameter, and B is the widest point perpendicular to length. During immunization, blood was drawn weekly and used in ELISA to monitor antibody titers.
# [2] = system: CT26 colon carcinoma cell line; assay: CT26 WT tumor challenge in immunized Balb/c mice; type: in vivo; conditions: day 14 and 16
# Source text: FIGS. 5A, 5B, 5C, and 5D show the experimental scheme to test the immunization with PD-L1 in Balb/c mice. […] Balb/c mice 6-8 weeks old, were immunized with MVF-peptide immunogens emulsified in ISA 720 with nor-MDP three times and three weeks apart. Mice were immunized with MVF-PD-L1 vaccine constructs [PD-L1(36-53), PD-L1(50-67), PD-L1(95-112), PD-L1(130-147)] prior to tumor challenge. Blood was collected weekly and sera tested for antibody titers by ELISA. Two weeks after the third immunization (3Y), the mice were engrafted with CT26 WT tumor cells 10^5 per mouse Control mice were treated twice weekly with PBS as negative control and twice weekly with anti-mPD-L1 mAb (10F.9G2) as positive control starting 2 days after tumor challenge. Tumor growths were observed twice weekly and measured by calipers.
# The peptide vaccines were dissolved in water and emulsified in Montanide ISA 720 (1:1) and 100 μg nor-MDP (N-acetylglucosamine-3yl-acetyl-1-alanyl-d-isoglutamine). Female Balb/c mice (Charles River Laboratories) at the age of 5 to 6 weeks were immunized three times at 3-week intervals with 100 μg peptide vaccine, and 15 days after the third immunization, the mice were challenged s.c. with CT-26 tumor cells (100,000 per mouse). Mice immunized with an irrelevant MVF peptide chimera were used as a negative control.
# Mice treated twice a week with anti-mouse PD-L1 MAb (Bio X Cell, West Lebanon, NH) 200 ug/dose was used as a positive control. Tumor growth was monitored for up to 18 days after challenge. During immunization, blood was drawn biweekly and used in ELISA to monitor Ab titers. The mice were euthanized at the end of treatment and tumors extracted and weighed samples of the tumors were saved for further study and for histological examination. The spleens were also collected for further examination.
# Two weeks after the third immunization (3Y), the mice were inoculated subcutaneously (s.c) with CT26 carcinoma cells (1×10^5 cells per mouse) and tumor formation was monitored on a daily basis afterwards. Mice treated with PBS served as negative control, and twice weekly treated mice with 200 μg/dose injections of anti-mouse PD-L1 monoclonal antibody (mAb clone 10F.9G2) served as positive control. Tumor growth was monitored daily and measured by caliper. […] PD-L1 B-cell epitope vaccines treatment had similar and significant reduction in tumor growth at day 16 post challenge as compared to negative control treatment with PBS (FIG. 9).
# as §1
# Tumor sizes were observed daily and measured by caliper. Tumor volumes were calculated by formula: Volume=(Length*Width*Width)/2. […]
sequence,measurement,setting,value
KLLSLIKGVIVHRLEGVEGPSLLIVYWEMEDKNIIQFVHG (KLLSLIKGVIVHRLEGVEGPSLLIVYWEMEDKNIIQFVHG-NH2) [PD-L1(36)],Immunogenicity (titers) 1′ Conc. 1:,[1]; bleed 1Y + 3,0
same,Immunogenicity (titers) 1′ Conc. 1:,[1]; bleed 2Y + 1,1600
same,Immunogenicity (titers) 1′ Conc. 1:,[1]; bleed 2Y + 2,4000
same,Immunogenicity (titers) 1′ Conc. 1:,[1]; bleed 2Y + 3,32000
same,Immunogenicity (titers) 1′ Conc. 1:,[1]; bleed 3Y + 1,16000
same,Immunogenicity (titers) 1′ Conc. 1:,[1]; bleed 3Y + 2,32000
same,Immunogenicity (titers) 1′ Conc. 1:,[1]; bleed 3Y + 3,16000
same,average tumor growth inhibition,[2],strongest average tumor growth inhibition
